# Experimental data reported in PubChem BioAssay AID1996.
# Details: buffer; pH 7.4; 200.0 µM
row,SMILES,solubility kinetic [µg/mL]
1,COc1ccc(CNC(=O)COC(=O)[C@H](Cc2ccccc2)NC(=O)c2cccs2)cc1,51
2,Cc1cccc(C)c1NC(=O)CSc1n[nH]c(=O)n1C1CC1,> 47.8
3,COc1ccc(C)cc1S(=O)(=O)Nc1ccc2c(c1)OCCO2,4.1
4,Cc1cc(C(=O)NC2CCCC(C)C2C)c2ccccc2n1 (centres undefined),18.9
5,Oc1ccccc1C(=S)N1CCN(c2cccc(Cl)c2)CC1,20
6,Nc1nc(C2CCOCC2)cs1,> 27.6
7,O=C1NC(=S)NC(=O)C1C1CCCCC1,30.1
8,Cc1ccc(S(C)(=O)=O)cc1C(=O)NC(C)C1CC2CCC1C2 (centres undefined),47.8
9,O=C(NCc1ccco1)C(=O)NCC(c1ccco1)N1CCOCC1 (centres undefined),47.2
10,Cc1cc(-c2ccc(Cl)cc2Cl)c(C#N)c(=O)[nH]1,3.4
11,CCc1noc(C)c1C(=O)Nc1nc(-c2ccc(OC)cc2)cs1,2.3
12,O=C(c1ccc(F)cc1)N(Cc1ccco1)C1CCS(=O)(=O)C1 (centres undefined),> 50.6
13,CC1CCc2c(sc(NC(=O)C3=COCCO3)c2C(N)=O)C1 (centres undefined),6.3
14,CC(=O)c1ccc(NC(=O)CCNC(=O)c2ccc(Cl)cc2)cc1,5.4
15,Nc1ccc(SCC(=O)Nc2cccc([N+](=O)[O-])c2)cc1,> 45.5
16,COc1ccc2[nH]c(C(=O)Nc3ccc4c(c3)OCO4)cc2c1,1.1
17,CCO/C=C1\C(=O)N(c2ccc(OCC)cc2)C(=O)c2ccccc21,> 50.6
18,CC(=O)c1cccc(NC(=O)NCCc2c[nH]c3ccccc23)c1,2.2
19,COc1ccccc1/C=C/C(=O)OCC(=O)NCc1ccc2c(c1)OCO2,6.3
20,CCc1ccc(OCC(=O)NC2CC(C)(C)NC(C)(C)C2)cc1,44
21,O=c1[nH]cnc(O)c1C(c1ccc(F)cc1)c1c(O)nc[nH]c1=O,> 49.5
22,CC(=O)Nc1ccc(S(=O)(=O)N2c3ccc(F)cc3CCC2C)cc1 (centres undefined),45.9
23,O=C(CSc1ncnc2ccccc12)NC1CCS(=O)(=O)C1 (centres undefined),> 50.6
24,COc1cc(NC(=O)c2cccnc2SC)cc(OC)c1,> 45.7

row,SMILES,solubility kinetic [µg/mL]
1,O=C(O)c1cc(-c2ccc(Cl)s2)nc2ccccc12,41.5
2,O=C1CSC(c2cccc(O)c2)N1Cc1ccccc1 (centres undefined),> 42.8
3,COc1ccccc1C(=O)COC(=O)CN1C(=O)C2CC=CCC2C1=O (centres undefined),52
4,CCCS(=O)(=O)N1CCCC(C(=O)Oc2ccc(OC)cc2)C1 (centres undefined),40.5
5,CCc1cc(C(=O)NCC(C)(C)N2CCOCC2)sc1C,> 46.6
6,O=C(COC(=O)c1ccccc1Br)NC(=O)NCc1ccccc1,5.1
7,c1ccc(CCNc2ncnc3sccc23)nc1,> 38.4
8,O=C(c1ccco1)N1CCN(Cc2nc(Cc3ccccc3)no2)CC1,37.7
9,O=C(COC(=O)c1ccc(Br)o1)NCc1ccccc1Cl,9
10,O=C(COC(=O)/C=C/c1ccccc1[N+](=O)[O-])Nc1ccc2[nH]c(=O)[nH]c2c1,10
11,Cc1cccc(OCC(=O)NCCCNC(=O)c2ccc(C)nc2)c1,> 51.2
12,CCOc1ccccc1N1C(=O)CC(=O)NC1=O,> 37.2
13,CCN(CC(=O)Nc1ccccc1Br)C1CCCCC1,9.1
14,Nc1nc(Cl)cc(Oc2ccc([N+](=O)[O-])cc2)n1,1.5
15,Cc1nc(C)c(C(=O)O)c(-c2cccs2)c1C(=O)O,> 41.6
16,CC(CCc1ccccc1)NC(=O)COC(=O)c1cccnc1Cl (centres undefined),> 52
17,Clc1nccc(NCc2ccccc2)n1,> 33
18,COC(=O)c1cc(OC)c(OC)cc1NC(=O)CSCc1c(C)noc1C,15.6
19,Cc1c([N+](=O)[O-])c([N+](=O)[O-])nn1CC(=O)N1CCOCC1,> 44.9
20,O=C(COC(=O)c1ccco1)NC1CCCC1,28.1
21,O=C1CSC(=S)N1c1ccc(Cl)c(Cl)c1,< 0.6
22,Cc1cccc(NC(=O)COC(=O)CN2CCCCCC2=O)c1C,> 49.9
23,CC(=O)Nc1ccc(C(=O)OCC(=O)N2CC3(C)CC2CC(C)(C)C3)cc1 (centres undefined),15.6
24,CSc1ccc(C(=S)N2CCCCCC2)cc1,12.9

row,SMILES,solubility kinetic [µg/mL]
1,CCOC(=O)CNC(=O)c1cnc(Nc2ccccc2OC)c2ccccc12,5.4
2,N/C(CS(=O)(=O)c1ccc(F)cc1)=N\O,> 34.8
3,COCCN1Cc2cc(=O)n3c([nH]c4ccccc43)c2C1=N,5.1
4,CC(=O)NC(CC(=O)OCc1ccc([N+](=O)[O-])cc1)c1ccccc1 (centres undefined),> 51.4
5,COc1cc(OC)c(NC(C)C(=O)N2CCCC2)cc1Cl (centres undefined),45.1
6,COc1ccc(CC(=O)OCC(=O)NCc2ccc(C)cc2)cc1OC,> 53.6
7,Cc1ccc(-c2nc3ccccc3[nH]2)cn1,29.5
8,CCc1ccc(C(=O)Nc2cccnc2Oc2ccc(Cl)cc2)cc1,1.5
9,CC1(C)Cc2cccc(C(=O)Nc3ccc(F)cc3F)c2O1,0.7
10,CCOc1ccc(NC(=S)NC(=O)C2CCCC2)cc1,1
11,Cc1ccccc1NC(=O)c1ccc2ccccc2c1,1.2
12,Fc1ccc2[nH]c3c(NCc4ccccc4)ncnc3c2c1,3.4
13,COc1ccccc1NCc1cc(=O)oc2c(C)c(O)ccc12,4.4
14,CC(OC(=O)C1CCCC1)C(=O)Nc1ncc(Cl)cc1Cl (centres undefined),49.1
15,CC(=O)NCCc1nc2cc(NC(=O)c3ccccc3Cl)ccc2n1C,> 55.6
16,COc1cc(/C=C/C(=O)O)cc(S(=O)(=O)Nc2ccccc2C(=O)NCc2ccco2)c1OC,> 73
17,COCCCNc1nc2nonc2nc1N(C)CC1CCCN1C (centres undefined),43.5
18,COc1ccc2oc(C(=O)NCCC(C)C)c(C)c2c1,1.8
19,C[C@H](NC(=O)c1ccccc1)C(=O)N1CCN(Cc2ccc3c(c2)OCO3)CC1,> 59.3
20,COc1cccc(CNC(=S)Nc2cccc(Cl)c2C)c1,29.9
21,Cc1ccc(NC(=O)c2cc(-c3ccc(F)cc3)on2)cc1C,0.4
22,CC(C)CCSc1nc2ccccc2[nH]1,10.7
23,O=C(NC1CCCCCC1)c1ccco1,> 31.1
24,O=C(c1cc(S(=O)(=O)N2CCOCC2)c(Cl)cc1Cl)N1CCN(S(=O)(=O)c2cccc(F)c2)CC1,20.8

row,SMILES,solubility kinetic [µg/mL]
1,Cc1ccc(C)c(NC(=O)CN(C)C(=O)COc2ccc3ccccc3c2)c1,3.1
2,COc1cc2c(cc1OC)C(C)N(C(=O)c1cc3c(C)cc(C)cc3[nH]1)CC2 (centres undefined),4.7
3,COc1ccccc1Cn1c(=S)[nH]c2ccc(F)cc2c1=O,1.6
4,NC12CC3CC(C1)CC(CC(=O)O)(C3)C2,23.6
5,COc1ccc(OCCNC(=O)CCCO)cc1,4
6,COC(=O)c1sccc1NC(=O)c1ccc(C(C)C)cc1,< 0.6
7,O=C(NCC(c1ccc(F)cc1)N1CCOCC1)c1ccc(OCc2ccccc2)cc1 (centres undefined),5.8
8,O=C(Cc1ccc(Br)cc1)Nc1ncc([N+](=O)[O-])s1,7.8
9,COc1ccc(OC)c(NC(=O)CSc2nc(O)cc(=O)n2CC(C)C)c1,> 59
10,CC(C)CNc1nc(N)c([N+](=O)[O-])c(N2CCCCCC2)n1,4.5
11,O=C1CC(N2CCc3ccccc32)C(=O)N1c1ccc(F)cc1 (centres undefined),> 46.5
12,CCCCN(C)Cc1cc(=O)oc2ccc3ccccc3c12,1.8
13,CC(C)C(=O)NS(=O)(=O)c1ccc(NS(C)(=O)=O)cc1,> 48.1
14,Cc1ccc(CNC(=O)CN2C(=O)NC3(CCCC3)C2=O)cc1,43.6
15,Clc1nc2c(ccc3ccccc32)[nH]1,> 30.4
16,CCOc1ccc(-c2c(=O)n(O)c3ccccc3[n+]2[O-])cc1,> 44.7
17,O=[N+]([O-])c1ccc(NCCCO)c(S(=O)(=O)N2CCOCC2)c1,48.8
18,CC(C)CNc1nc(N)c([N+](=O)[O-])c(NCc2ccccc2)n1,< 0.1
19,CCOC(=O)c1ccc(C(=S)N2CCCC2)cc1,37.3
20,Cc1ccc(S(=O)(=O)NC(Cc2ccccc2)C(=O)O)cc1C (centres undefined),> 50
21,COc1ccccc1NC(=O)Nc1ccc(CC#N)cc1,1.4
22,CSc1nc(C)[nH]c(=O)c1C#N,> 27.2
23,C=CCn1c(C)cc(C(=O)Cn2c(C(C)O)nc3ccccc32)c1C (centres undefined),29.4
24,Nc1cc(Cl)ccc1C(=O)OCC(=O)NC1CCCCC1,0.5

row,SMILES,solubility kinetic [µg/mL]
1,COc1ccc(C(=O)NCCONC(=O)c2ccc(OC)cc2)cc1,50.6
2,CCOC(=O)CCSc1n[nH]c(=S)s1,> 37.6
3,Cc1noc(C)c1C(=O)N1CCC(C(=O)c2ccccc2)CC1,41.8
4,Cc1ccc(C)c(Nc2ccc3nonc3c2[N+](=O)[O-])c1,2
5,Cl.O=C(CCN1CCc2ccccc2C1)Nc1ccc(F)c(F)c1,37.9
6,Cc1c(Cl)cccc1NS(=O)(=O)c1cccc2nsnc12,> 51
7,O=C(COC(=O)c1ccccc1O)NC(c1ccccc1)c1ccccc1,5.9
8,CC(C)NC(=S)NCc1cccs1,> 32.2
9,O=C(Nc1cccc(NC(=O)c2ccccc2F)c1)c1ccccc1,0.9
10,CCCc1cc(=O)[nH]c(SCC(=O)NCc2ccc3c(c2)OCO3)n1,> 54.2
11,CCCCNc1ccc2c3c(cccc13)C(=O)N(CCCC)C2=O,2.1
12,CCC1(CC)NC(=O)N(CC(=O)Nc2cccc3ccccc23)C1=O,> 50.9
13,O=C(COC(=O)c1ccccc1)Nc1ccc2[nH]c(=O)[nH]c2c1,7.2
14,COc1ccc2cc(S(=O)(=O)Nc3ccccn3)ccc2c1,10
15,O=S(=O)(NCCc1ccccc1)c1ccc(F)cc1,40.9
16,COc1cccc2cc(/C(=N/O)c3ccc(Br)cc3)oc12,< 0.7
17,CCN1C(=O)c2ccc(C(=O)Nc3ccc4c(c3)OCO4)cc2C1=O,0.5
18,Cc1ccccc1OCCn1cc(C=O)c2ccccc21,< 0.6
19,CC1CCCCC1NC(=O)COC(=O)COc1ccccc1Cl (centres undefined),17.8
20,Cc1nc2ccccc2n1CC(=O)NC1CCCCCC1,> 42.8
21,O=c1nc2n(c3ncccc13)CCCCC2,> 32.3
22,CCCN1C(=O)c2ccccc2NC1c1ccc(Cl)cc1 (centres undefined),3.2
23,Cc1ccc(/C(O)=C/c2nc3ccccc3oc2=O)cc1,22.5
